The text below walks through data of ChEMBL document CHEMBL6127079, “Design and synthesis of spiro[pyrrolidine-3,3'-quinoline]-2,2'-dione derivatives as novel antifungal agents targeting chitin synthase” (Eur J Med Chem, 2024).

In brackets after ≈: the same amount, converted by molar mass. *1 amine or outer side, *2 acyl side, *3 side chain or, on linkers, in order; H or OH if unused. Where a SMILES comes first, the peptide text is derived from it. Bridges are numbered along the chain shown (N, C = ends). [ ]: non-standard residue; d: D form. The star is where a group is joined. hTyr(3S-OH,4S-OH,3'-OSO3H) = N[C@H](C(=O)O)[C@H](O)[C@@H](O)c1ccc(O)c(OS(=O)(=O)O)c1; Orn(4R-OH,5R-OH) = O=C([C@H](C[C@@H](O)[C@@H](O)N[*:3])N[*:1])[*:2]; Pro(3S-OH,4S-Me) = C[C@H]1CN[C@H](C(=O)O)[C@H]1O; X1 = CCCCCOc1ccc(-c2cc(-c3ccc(C(=O)*)cc3)no2)cc1; Gln(3R-OH) = NC(=O)C[C@@H](O)[C@H](N)C(=O)O; Hyp = O=C(O)[C@@H]1C[C@@H](O)CN1

The subject of experiment [1] is Aspergillus flavus. Description: Antifungal activity against Aspergillus flavus ATCC 16870 assessed as inhibition of growth incubated for 24 hrs by two-fold serial dilution method. The format is functional.
For experiment [2], the system named is Aspergillus fumigatus. Nature of the experiment: Antifungal activity against Aspergillus fumigatus GIMCC 3.19 assessed as inhibition of growth incubated for 24 hrs by two-fold serial dilution method. Format: functional.
Experiment [3] in a line: Inhibition of chitin synthase extracted from Candida tropicalis ATCC 750 using UDP-GlcNAc as substrate assessed as inhibition rate by TMB based microplate analyzer relative to control.
Experiment [4] has as its system Candida albicans. Description: Antifungal activity against Candida albicans ATCC 76615 assessed as inhibition of growth incubated for 24 hrs by two-fold serial dilution method. The format is functional.
Experiment [5] relates to Candida tropicalis. Nature of the experiment: Inhibition of chitin synthase extracted from Candida tropicalis ATCC 750 using UDP-GlcNAc as substrate assessed as inhibition rate at 300 ug/ml by TMB based microplate analyzer relative to control. To be noted: dose 300.0 µg/ml.
Experiment [6] concerns Cryptococcus neoformans. Description: Antifungal activity against Cryptococcus neoformans ATCC 32719 assessed as inhibition of growth incubated for 24 hrs by two-fold serial dilution method. Format: functional.
In experiment [7] the test system is Candida albicans. Nature of the experiment: Antifungal activity against fluconazole-resistant Candida albicans ATCC 76615 assessed as inhibition of fungal growth incubated for 24 to 72 hrs. The format is functional. To be noted: time 24-72 hrs.
Experiment [8] relates to Aspergillus flavus. Description: Antifungal activity against fluconazole-resistant Aspergillus flavus ATCC 16870 assessed as inhibition of fungal growth incubated for 24 to 72 hrs. Format: functional. To be noted: time 24-72 hrs.
Experiment [9] deals with Candida albicans. Description: Antifungal activity against Candida albicans ATCC 76615 incubated for 24 hrs by half broth dilution based checkerboard method. Format: functional.
The test system of experiment [10] is Aspergillus flavus. Nature of the experiment: Antifungal activity against Aspergillus flavus ATCC 16870 incubated for 24 hrs by half broth dilution based checkerboard method. The format is functional.
In experiment [11] the test system is Aspergillus fumigatus. Nature of the experiment: Antifungal activity against fluconazole-resistant Aspergillus fumigatus GIMCC 3.19 assessed as inhibition of fungal growth incubated for 24 to 72 hrs. Particulars: time 24-72 hrs. Format: functional.
Experiment [12] deals with Aspergillus fumigatus. Nature of the experiment: Antifungal activity against Aspergillus fumigatus GIMCC 3.19 incubated for 24 hrs by half broth dilution based checkerboard method. Format: functional.
Experiment [13] has as its system Cryptococcus neoformans. Description: Antifungal activity against Cryptococcus neoformans ATCC 32719 incubated for 24 hrs by half broth dilution based checkerboard method. The format is functional. (In general: Dilution methods test growth across graded concentrations, often in twofold steps.)
Experiment [14] concerns Cryptococcus neoformans. Nature of the experiment: Antifungal activity against fluconazole-resistant Cryptococcus neoformans ATCC 32719 assessed as inhibition of fungal growth incubated for 24 to 72 hrs. To be noted: time 24-72 hrs. Format: functional.
Experiment [15] has as its system Candida albicans. Nature of the experiment: Antifungal activity against micafungin-resistant Candida albicans ATCC 76615 assessed as inhibition of fungal growth incubated for 24 to 72 hrs. Format: functional. To be noted: time 24-72 hrs.

One may read the MIC as the smallest concentration in the dilution series that meets the test's criterion for growth inhibition. The term IC50 denotes the point on the concentration scale where inhibition reaches its midpoint. As a reminder, the inhibition is the change of the read-out against control, counted positive when it falls. In the case of `O=C(/C=C/C(=O)Nc1nccs1)Nc1ccc2c(c1)NC(=O)C1(CCNC1=O)C2` (racemic), the MIC is 64 µg/mL (≈ 156 µM) in experiment [1], 32 µg/mL (≈ 77.8 µM) in experiment [2], 64 µg/mL (≈ 156 µM) in experiment [4] and 32 µg/mL (≈ 77.8 µM) in experiment [6]. Also, the IC50 in experiment [3] worked out at 441 µM. Moreover, the inhibition in experiment [5] is 55.8%.

Regarding `O=C(/C=C/C(=O)Nc1ccc2c(c1)NC(=O)C1(CCNC1=O)C2)NCc1ccccc1` (racemic), the MIC came out at 16 µg/mL (≈ 38.2 µM) in experiment [1], 64 µg/mL (≈ 153 µM) in [2], 32 µg/mL (≈ 76.5 µM) in experiment [4] and 16 µg/mL (≈ 38.2 µM) in experiment [6]. The inhibition in experiment [5] is 49.5%.

As to `O=C(CN1CCC(C(=O)Nc2nc3ccccc3s2)CC1)Nc1ccc2c(c1)NC(=O)C1(CCNC1=O)C2` (racemic), the MIC in experiment [1] is 32 µg/mL (≈ 60.1 µM); in experiment [2], 32 µg/mL (≈ 60.1 µM); in [4], 64 µg/mL (≈ 120 µM); in experiment [6], 16 µg/mL (≈ 30 µM). Also, the IC50 in experiment [3] was found to be 379 µM. Further, the inhibition in experiment [5] worked out at 57.7%.

As to `CCCCN(CCCC)C(=O)/C=C/C(=O)Nc1ccc2c(c1)NC(=O)C1(CCNC1=O)C2` (racemic), the MIC in experiment [1] worked out at 256 µg/mL (≈ 581 µM); in [2] it was 256 µg/mL (≈ 581 µM); in experiment [4], 256 µg/mL (≈ 581 µM); in experiment [6], 128 µg/mL (≈ 291 µM). Besides, in [5], the inhibition is 28.2%.

For `CCCCNC(=O)/C=C/C(=O)Nc1ccc2c(c1)NC(=O)C1(CCNC1=O)C2` (racemic), the MIC in [1] is 64 µg/mL (≈ 166 µM); in experiment [2], 256 µg/mL (≈ 666 µM); in experiment [4] it was 128 µg/mL (≈ 333 µM); in [6], 128 µg/mL (≈ 333 µM). The inhibition in [5] turned out to be 35.7%.

As for `O=C(/C=C/C(=O)Nc1ccc2c(c1)NC(=O)C1(CCNC1=O)C2)Nc1ccccc1` (racemic), the MIC in experiment [1] worked out at 64 µg/mL (≈ 158 µM); in [2], 32 µg/mL (≈ 79.1 µM); in [4] it was 64 µg/mL (≈ 158 µM); in experiment [6], 128 µg/mL (≈ 316 µM). In experiment [5], the inhibition was 39.6%.

As for `CCCCNC(=O)C1CCN(CC(=O)Nc2ccc3c(c2)NC(=O)C2(CCNC2=O)C3)CC1` (racemic), the MIC in experiment [1] was 64 µg/mL (≈ 140 µM); in experiment [2], 256 µg/mL (≈ 562 µM); in [4], 256 µg/mL (≈ 562 µM); in experiment [6], 128 µg/mL (≈ 281 µM). The inhibition in experiment [5] turned out to be 18.2%.

Regarding `COc1ccccc1NC(=O)C1CCN(CC(=O)Nc2ccc3c(c2)NC(=O)C2(CCNC2=O)C3)CC1` (racemic), the MIC in experiment [1] was 32 µg/mL (≈ 63.3 µM); in experiment [2], 128 µg/mL (≈ 253 µM); in experiment [4], 64 µg/mL (≈ 127 µM); in [6], 32 µg/mL (≈ 63.3 µM). Further, the inhibition in experiment [5] turned out to be 39.7%.

In the case of `O=C(CN1CCC(C(=O)Nc2ccc(F)cc2)CC1)Nc1ccc2c(c1)NC(=O)C1(CCNC1=O)C2` (racemic), the MIC in [1] was found to be 32 µg/mL (≈ 64.8 µM); in [2] it was 64 µg/mL (≈ 130 µM); in [4] it was 128 µg/mL (≈ 259 µM); in experiment [6], 128 µg/mL (≈ 259 µM). Further, in [5], the inhibition amounted to 79.7%.

As for `CCCCCCNC(=O)C1CCN(CC(=O)Nc2ccc3c(c2)NC(=O)C2(CCNC2=O)C3)CC1` (racemic), the MIC in experiment [1] turned out to be 256 µg/mL (≈ 529 µM); in experiment [2], 128 µg/mL (≈ 265 µM); in experiment [4] it was 128 µg/mL (≈ 265 µM); in experiment [6], 256 µg/mL (≈ 529 µM). In addition, in experiment [5], the inhibition stood at 24%.

For `O=C(/C=C/C(=O)Nc1ccccc1Br)Nc1ccc2c(c1)NC(=O)C1(CCNC1=O)C2` (racemic), the MIC in experiment [1] stood at 32 µg/mL (≈ 66.2 µM); in [2] it was 32 µg/mL (≈ 66.2 µM); in [4] it was 32 µg/mL (≈ 66.2 µM); in experiment [6], 16 µg/mL (≈ 33.1 µM). The IC50 in [3] was 266 µM. Besides, the inhibition in [5] amounted to 66.2%.

On to `CCCCCNC(=O)/C=C/C(=O)Nc1ccc2c(c1)NC(=O)C1(CCNC1=O)C2` (racemic), for which the MIC in experiment [1] worked out at 128 µg/mL (≈ 321 µM); in experiment [2], 128 µg/mL (≈ 321 µM); in experiment [4], 256 µg/mL (≈ 642 µM); in experiment [6], 256 µg/mL (≈ 642 µM). Also, in [5], the inhibition was determined as 37.9%.

For `OC(Cn1cncn1)(Cn1cncn1)c1ccc(F)cc1F` [FLUCONAZOLE], the MIC in [1] was 4 µg/mL (≈ 13.1 µM); in [7], 256 µg/mL (≈ 836 µM); in [8], 256 µg/mL (≈ 836 µM); in experiment [2], 4 µg/mL (≈ 13.1 µM); in [9] it was 8 µg/mL; in experiment [10] it was 4 µg/mL. In addition, the minimal inhibitory concentration (MIC) in [11] amounted to 256 µg/mL (≈ 836 µM); in experiment [4], 8 µg/mL (≈ 26.1 µM); in [12], 4 µg/mL; in [6], 8 µg/mL (≈ 26.1 µM); in [13] it was 8 µg/mL; in experiment [14] it was 256 µg/mL (≈ 836 µM).

For the compound `CCCCCOc1ccc(-c2cc(-c3ccc(C(=O)N[C@H]4C[C@@H](O)[C@@H](O)NC(=O)[C@@H]5[C@@H](O)[C@@H](C)CN5C(=O)[C@H]([C@H](O)CC(N)=O)NC(=O)[C@H]([C@H](O)[C@@H](O)c5ccc(O)c(OS(=O)(=O)O)c5)NC(=O)[C@@H]5C[C@@H](O)CN5C(=O)[C@H]([C@@H](C)O)NC4=O)cc3)no2)cc1` [MICAFUNGIN] (X1-[Orn(4R-OH,5R-OH)]T[Hyp][hTyr(3S-OH,4S-OH,3'-OSO3H)][Gln(3R-OH)][Pro(3S-OH,4S-Me)]; lactam 1-C), in experiment [15], the MIC was found to be 256 µg/mL (≈ 202 µM).
